Series [1] deals with PB2 cap binding domain (CBD) (Influenza A virus, UniProt Q9Q0V1). Description: biochemical. Also noted: species or system avian H5N1 influenza virus.
The test system of series [2] is influenza A virus A/Aichi/2/68 (H3N2). Description: Cytopathic effect (CPE) assay H3N2. Format: cell-based, influenza A virus (H3N2) on MDCK cells. The following applies: for inhibition at 50 µM: H3N2, activity conc 50 (μM per method); for inhibition at 20 µM: H3N2, activity conc 20 (μM per method); for inhibition at 5 µM: H3N2, activity conc 5 (μM per method). In outline: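 MDCK cells infected with A/Aichi/2/68 (H3N2) at MOI 0.05 in trypsin-containing medium, compound (generally 25 μM and 250 μM, 1% DMSO) added together with virus; 48 hrs at 37° C. Viability by ATP luminescence; % CPE reduction = infected-treated minus infected-untreated RLU, normalized to uninfected-treated viability.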
On the technique in general: Cytopathic effects are the visible damage that an infection or toxin causes in cultured cells.

Setting [3] is: Influenza A virus, read-out: CPE H3N2 reduction (%).
Setting [4] is: Influenza A virus, H3N2, read-out: CPE H3N2 IC50.

The structures appear in SMILES notation. Structures can show the parent of a compound that is named as a salt. Where two headings read alike, the source gives them in different places.

PB2 cap binding domain (CBD), sequence (Q9Q0V1 318-483 limits assumed): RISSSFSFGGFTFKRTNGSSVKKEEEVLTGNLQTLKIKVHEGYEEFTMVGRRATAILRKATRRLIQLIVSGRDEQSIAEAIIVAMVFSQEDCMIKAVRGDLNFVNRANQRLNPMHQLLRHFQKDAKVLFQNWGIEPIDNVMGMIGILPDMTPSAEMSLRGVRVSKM

The term melting point denotes the temperature, or range, at which the solid turns liquid. As to `O=C(c1cc(N2CCOCC2)ccn1)N(O)Cc1ccccc1`, the melting point was in the range of 105 to 110 °C. Same read-out and setting: the figure for `Cl.O=C(c1cc(N2CCOCC2)ccn1)N(O)Cc1ccccc1` is 185 to 190 °C; for `O=C(c1ccc(N2CCCCC2)cn1)N(O)Cc1ccccc1` it is 110 to 115 °C; for `O=C(NOCc1ccccc1)c1ccc(-c2ccccc2)cn1` it is 155 to 160 °C. With `CCONC(=O)c1ccc(-c2ccccc2)cn1`, the melting point lay within 100 to 105 °C. Same read-out and setting: the figure for `Cc1c(Cc2ccccc2)sc2nc(N)[nH]c(=O)c12` is 292 to 294 °C.

For `O=C(c1cc2ccccc2cn1)N(Cc1ccccc1)OCc1ccccc1`, the melting point is 70 to 75 °C. On the same count and under the same terms, under `O=C(NO)c1cc2ccccc2cn1` stands 160 to 165 °C; under `Cc1c(-c2ccc(F)cc2)sc2nc(N)[nH]c(=O)c12`, 325 to 335 °C.

`Cc1c(-c2ccc(F)cc2F)sc2nc(N)[nH]c(=O)c12` registered a melting point of 330 to 350 °C. The same measure, in the same setting: the figure for `Cc1c(-c2cccc(Cl)c2F)sc2nc(N)[nH]c(=O)c12` is 330 to 350 °C; for `CN(OCc1ccccc1)C(=O)c1cc2ccccc2cn1` it is 70 to 75 °C. For the compound `O=C(NOC(=O)c1cc(N2CCCCC2)ccn1)c1cc(N2CCCCC2)ccn1`, the melting point was 210 to 215 °C. The same measure, in the same setting: under `Cc1c(-c2ccc(Cl)c(O)c2)sc2nc(N)[nH]c(=O)c12` stands over 350 °C.

The compound `CC(C)c1cccc(-c2ccc(C(=O)N(O)CCc3ccccc3)nc2)c1` displayed a melting point of 110 to 115 °C. The same measure, in the same setting: under `Cc1c(-c2cccc(C#N)c2)sc2nc(N)[nH]c(=O)c12` stands over 350 °C; under `Cc1c(-c2ccc(Cl)c(C#N)c2)sc2nc(N)[nH]c(=O)c12`, over 360 °C; under `CCONC(=O)c1cc(NCc2cccc(OCc3ccccc3)c2)ccn1.Cl`, 70 to 75 °C.

Take `Cc1c(-c2cc(C#N)ccc2F)sc2nc(N)[nH]c(=O)c12`: the melting point lay in the range of 332 to 336 °C. Same read-out and setting: the figure for `Cc1c(-c2cc(C(F)(F)F)cc(C(F)(F)F)c2)sc2nc(N)[nH]c(=O)c12` is 344 to 347 °C; for `Cc1c(-c2cc(CN(C)C)ccc2F)sc2nc(N)[nH]c(=O)c12` it is 230 to 250 °C.

For the compound `Cc1c(-c2ccc(Cl)nc2)sc2nc(N)[nH]c(=O)c12`, the melting point was in the range of 230 to 250 °C. On the same count and under the same terms, under `Cl.O=C(NO)c1cc(NS(=O)(=O)Cc2ccccc2F)ccn1` stands 209 to 216 °C; under `Cl.O=C(NO)c1cc(NS(=O)(=O)Cc2ccccc2Cl)ccn1`, 215 to 220 °C. The same measure, in the same setting: under `Cc1c(-c2ccnc(C(F)(F)F)c2)sc2nc(N)[nH]c(=O)c12` stands 335 to 355 °C; under `Cl.O=C(NO)c1cc(NS(=O)(=O)Cc2ccc(Cl)cc2)ccn1`, 210 to 230 °C; under `Cc1sc2nc(N)[nH]c(=O)c2c1-c1ccc(F)cc1`, 360 to 362 °C. Same read-out and setting: the figure for `O=C(c1ccc(N2CCCC2)cn1)N(O)Cc1ccccc1` is 115 to 120 °C; for `Cl.O=C(NO)c1cc(NS(=O)(=O)Cc2cccc(Br)c2)ccn1` it is 197 to 205 °C; for `Cc1c(-c2ccccc2)sc2nc(NCCN)[nH]c(=O)c12` it is 192 to 194 °C. With `Cl.O=C(NO)c1cc(NS(=O)(=O)Cc2cccc3cccnc23)ccn1`, the melting point was in the range of 220 to 228 °C.

Compound `Cc1c(-c2ccccc2)sc2nc(NC3CCCCC3)[nH]c(=O)c12` returned a melting point of 265 to 270 °C. Same read-out and setting: under `O=C(c1cc(NS(=O)(=O)Cc2ccccc2)ccn1)N(O)Cc1ccccc1` stands 190 to 195 °C; under `O=C(c1cc(NS(=O)(=O)c2ccccc2)ccn1)N(O)Cc1ccccc1`, 175 to 180 °C.

In turn, `Cl.O=C(c1cc(NS(=O)(=O)Cc2ccc(F)cc2)ccn1)N(O)Cc1ccccc1` returned a melting point of 178 to 183 °C. The same measure, in the same setting: the figure for `Nc1nc2sc(Cc3ccccc3)cc2c(=O)[nH]1` is 294 to 296 °C; for `Cl.O=C(c1cc(NS(=O)(=O)Cc2cccc(F)c2)ccn1)N(O)Cc1ccccc1` it is 111 to 113 °C; for `Cl.O=C(c1cc(NS(=O)(=O)Cc2cccc(C(F)(F)F)c2)ccn1)N(O)Cc1ccccc1` it is 178 to 182 °C. Still for that read-out and setting: under `O=C(c1cc(-c2ccccc2)ccn1)N(O)Cc1ccccc1` stands 160 to 165 °C. Still for that read-out and setting: under `O=C(c1cc(C2=CCCCC2)ccn1)N(O)Cc1ccccc1` stands 118 to 122 °C. Take `O=C(c1cc(C2CCCCC2)ccn1)N(O)Cc1ccccc1`: the melting point fell in the range of 106 to 110 °C. `O=C(c1cc2ccccc2cn1)N(O)Cc1ccccc1` registered a melting point of 120 to 125 °C. Regarding `O=C(c1cc(C2=CC3CCC(C2)N3)ccn1)N(O)Cc1ccccc1` (stereo not drawn), the melting point is 95 to 100 °C.

`O=C(c1cc(N2CCCC(F)(F)C2)ccn1)N(O)Cc1ccccc1`: the melting point lay within 140 to 145 °C.

The compound `O=C(c1cc(N2CCC(N3CCCC3)CC2)ccn1)N(O)Cc1ccccc1` displayed a melting point of 135 to 140 °C.

Compound `O=C(c1cc(C2=CCNCC2)ccn1)N(O)Cc1ccccc1` (as salt: hydrochloride) registered a melting point of 140 to 150 °C. On the same count and under the same terms, the figure for `Cl.O=C(NO)c1cc(N2CCCCC2)ccn1` (hydrate or solvate) is 200 to 202 °C.

In turn, `CCONC(=O)c1cc(NCC2CCN(Cc3ccccc3)CC2)ccn1.Cl.Cl` (hydrate or solvate) registered a melting point of 125 to 130 °C. On the same count and under the same terms, the figure for `CCONC(=O)c1ccc(-c2cccc(CN(C)Cc3ccccc3)c2)cn1.Cl` (hydrate or solvate) is 85 to 90 °C. Same read-out and setting: under `CCONC(=O)c1cc(N2CCOCC2)ccn1.Cl` (hydrate or solvate) stands 200 to 202 °C. `CCONC(=O)c1cc(N)ccn1.Cl` (hydrate or solvate) yielded a melting point of 114 to 120 °C.

In general, Kd refers to the constant that tells how readily two partners part at equilibrium. In turn, `Nc1nc2sc(Cc3ccccc3)cc2c(=O)[nH]1` [SAV-7517] yielded a Kd in series [1] of 13 µM. Further, the inhibition at 10 µM in series [2] (Influenza A virus, H3N2, activity conc 10 (μM per method), read-out: CPE H3N2 reduction (%)) was -2.64%. On to `Cc1c(Cc2ccccc2)sc2nc(N)[nH]c(=O)c12` [SAV-7521], for which the Kd in series [1] was 6 µM. In addition, the inhibition at 25 µM in series [2] (Influenza A virus, H3N2, activity conc 25 (μM per method), read-out: CPE H3N2 reduction (%)) is 33.6%. Compound `Nc1nc2sc(-c3ccccc3)cc2c(=O)[nH]1` [SAV-7549] displayed a dissociation constant Kd in series [1] of 8.8 µM. In series [2] (setting [3]), the inhibition at 50 µM was -2.4%. As for `COc1ccc(-c2sc3nc(N)[nH]c(=O)c3c2C)cc1` [SAV-7575], binding in series [1] was characterised by a dissociation constant (Kd) of 4 µM. The inhibition at 20 µM in series [2] (setting [3]) was found to be 9.02%. Taken in the same sequence, the figures for `Cc1c(-c2ccccc2)sc2nc(NCCO)[nH]c(=O)c12` [SAV-7577] were 6.8 µM and 2.85%. For `Cc1c(-c2ccc(Cl)cc2)sc2nc(N)[nH]c(=O)c12` [SAV-7579], in that order: 0.27 µM and 11.3%.

The term IC50 denotes the concentration that inhibits the measured activity by half. `Cc1c(-c2cccc(Cl)c2)sc2nc(N)[nH]c(=O)c12` [SAV-7580] showed a Kd in series [1] of 8.9 µM. For the same compound, the half-inhibitory concentration (IC50) in series [2] (Influenza A virus, H3N2, read-out: CPE H3N2 IC50 [μM]) worked out at 11 µM. Besides, the “CPE H3N2 reduction (%)” value in series [2] (activity conc 2 (μM per method)) is 89.8%. In turn, `Cc1c(-c2cccc(C(F)(F)F)c2)sc2nc(N)[nH]c(=O)c12` [SAV-7581] returned a Kd in series [1] of 1.4 µM. Also, in series [2] (setting [3]), the inhibition at 50 µM came out at 87.8%. For the same compound, the IC50 in series [2] (setting [4]) was 17 µM. `Cc1c(-c2ccccc2)sc2nc(NCCCO)[nH]c(=O)c12` [SAV-7582] came in with a dissociation constant (Kd) in series [1] of 4.2 µM. In series [2] (setting [3]), the inhibition at 50 µM was 53.1%. In turn, `Cc1c(-c2ccccc2)sc2nc(NCCN(C)C)[nH]c(=O)c12` [SAV-7583] registered a dissociation constant (Kd) in series [1] of 68 µM.

Turning to `Cc1ccc(-c2sc3nc(N)[nH]c(=O)c3c2C)cc1` [SAV-7585], binding in series [1] was characterised by a dissociation constant (Kd) of 2 µM. Moreover, the inhibition at 2.5 µM in series [2] (Influenza A virus, H3N2, activity conc 2.5 (μM per method), read-out: CPE H3N2 reduction (%)) is 28.9%. Besides, the concentration for half-maximal inhibition (IC50) in series [2] (setting [4]) came to 3.5 µM. `Cc1c(-c2ccncc2)sc2nc(N)[nH]c(=O)c12` [SAV-7586] gave a Kd in series [1] of 12 µM. Further, the inhibition at 15 µM in series [2] (Influenza A virus, H3N2, activity conc 15 (μM per method), read-out: CPE H3N2 reduction (%)) came out at 81.2%. Moreover, the IC50 in series [2] (setting [4]) amounted to 5.3 µM. `Cc1c(-c2cccnc2)sc2nc(N)[nH]c(=O)c12` [SAV-7589] returned a Kd in series [1] of 10 µM. In addition, in series [2] (setting [3]), the inhibition at 50 µM came out at 63.1%. The 50% inhibitory concentration (IC50) in series [2] (setting [4]) worked out at 27 µM. In series [1], `Cc1c(-c2cccc(C#N)c2)sc2nc(N)[nH]c(=O)c12` [SAV-7594] came in with a dissociation constant Kd of 2 µM. In series [2] (setting [3]), the inhibition at 5 µM is 14.5%. For the same compound, the concentration for half-maximal inhibition (IC50) in series [2] (setting [4]) was determined as 14 µM. As for `Cc1ccccc1-c1sc2nc(N)[nH]c(=O)c2c1C` [SAV-7596], the Kd in series [1] came to 11 µM. Also, the inhibition at 5 µM in series [2] (setting [3]) is 13.6%. In series [1], `Cc1c(-c2ccccc2F)sc2nc(N)[nH]c(=O)c12` [SAV-7598] showed a Kd of 3.7 µM. Further, the inhibition at 2 µM in series [2] (Influenza A virus, H3N2, activity conc 2 (μM per method), read-out: CPE H3N2 reduction (%)) was found to be 11.4%. Turning to `Cc1c(-c2cccc(C(N)=O)c2)sc2nc(N)[nH]c(=O)c12` [SAV-7599], the Kd in series [1] is 5.3 µM. Moreover, in series [2] (setting [3]), the inhibition at 20 µM was -0.7%.

In turn, `Cc1c(-c2cc(C(F)(F)F)cc(C(F)(F)F)c2)sc2nc(N)[nH]c(=O)c12` [SAV-7600] displayed a Kd in series [1] of 3.8 µM. Also, the inhibition at 2 µM in series [2] (Influenza A virus, H3N2, read-out: CPE H3N2 reduction (%), activity conc 2 (μM per method)) turned out to be 5.8%.

In turn, `Cc1c(-c2cnn(C)c2)sc2nc(N)[nH]c(=O)c12` [SAV-7603] came in with an equilibrium dissociation constant (Kd) in series [1] of 42 µM.

Values taken from patent US20160297763A1, “Heteroaryl hydroxamic acid derivatives and their use in the treatment, amelioration or prevention of a viral disease” (priority 2011, published 2016).
